Assay results: paper PMC6595003, “Insights into real-time chemical processes in a calcium sensor protein-directed dynamic library” (Nature Communications, 2019)
“And” between values parts separate entries of the source, which are not always exact repeats. Identical values can stand only once. One block for each compound: values may come before it.

Columns and labels:
[1] = commercial drugs; ref 5 (Hou et al., 2004); cited from earlier work
[2] = Parallel artificial membrane permeability assay (PAMPA-BBB); assay type: in vitro ADME; settings: for Papp at 2.5 h: pig, PAMPA-BBB, pH 7.4, 5% DMSO, 2 h 30 min at 25 °C, mean ± SD, read-out: Pe, in vitro permeability; for Pe (10-6 cm s-1) Experimental 1 / Pe (10-6 cm s-1) Experimental 2 / Pe (10-6 cm s-1) Experimental 3: source data
From the text: The PAMPA methodology is a high-throughput technique to predict passive permeability through biological membranes that employs a brain lipid porcine as membrane. […]
From this equation and following the pattern established in the literature for BBB permeation prediction2 we could classify compounds as CNS + when they present a permeability > 4.50 x 10-6 cm s-1. Source data are provided as a Source Data file. […]
Parallel artificial membrane permeability assays. Prediction of the brain penetration was evaluated using a parallel artificial membrane permeability assay (PAMPA).4 Ten commercial drugs, phosphate buffer saline solution at pH 7.4 (PBS). DMSO and dodecane were purchased from Sigma, Across organics, Aldrich and Fluka. The porcine […]
plate was a 96-well filtrate plate (Multiscreen® IP Sterile Plate PDVF membrane, pore […]
MAIPS4510) and the acceptor plate was an indented 96-well plate (Multiscreen®, catalog no. MAMCS9610) both from Millipore. Filter PDVF […]
membrane units (diameter 30 mm, pore size 0.45 µm) from Symta were used to filter the samples. A 96-well plate UV reader (Thermoscientific, Multiskan spectrum) was used for the UV measurements.

[3] = system: NCS-1/Ric8a interaction; design: method as in PMID 28119500, PMID 29966094; settings: cited from earlier work
[4] = target: T1, dNCS-1 (Drosophila melanogaster, UniProt Q9VWX8); assay: Protein-directed DCL, HPLC-MS relative peak area with and without dNCS-1
T1 construct: made in house; host or cells: E. coli
T1 sequence (Q9VWX8 1-187): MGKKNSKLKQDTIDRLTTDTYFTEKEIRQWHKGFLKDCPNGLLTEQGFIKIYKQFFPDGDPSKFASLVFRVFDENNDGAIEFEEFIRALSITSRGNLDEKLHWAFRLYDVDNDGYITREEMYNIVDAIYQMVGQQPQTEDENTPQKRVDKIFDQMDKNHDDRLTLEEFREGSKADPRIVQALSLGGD
Procedure: The reversibility of the DCL was evident, since an identical equilibrium distribution to that shown in Fig. 4a was obtained when two different starting points were employed. The observed degree of amplification was 3b > 3e ≥ 3d > 3a. The precise composition of the DCL (with and without dNCS-1), was assessed by measuring the relative peak area (RPA). Indeed, the normalized change of RPA was used to quantify the protein influence in the final outcome (Supplementary Figs. 9, 10 and Supplementary Tables 1, 2 and 3)[28]. […] Note that compounds 3a–3e can exist as E/Z isomers of the C = N bond. […].
Aldehyde 1 (1.2 μL, 50 mM, DMSO), the five acylhydrazides 2a–2e (5 × 3.6 μL, 50 mM, DMSO), p-anisidine (1 μL, 12 M, DMSO) and buffer 20 mM Tris, 0.5 M NaCl and 1 mM CaCl2, 1 mM DTT at pH 7.4 (750 μL) in 3.3 % DMSO. The mixture was stabilized in 5 h at 4 °C. HPLC analysis was performed.
Aldehyde 1 (1.2 μL, 50 mM, DMSO), the five acylhydrazides 2a–2e (5 × 3.6 μL, 50 mM, DMSO), p-anisidine (1 μL, 12 mM, DMSO) and dNCS-1 in buffer 20 mM Tris, 0.5 M NaCl and 1 mM CaCl2, 1 mM DTT at pH 7.4 (66.7 μM, 750 μL, 1 eq.). The experiment is in 3.3% DMSO. The mixture was stabilized for 5 h at 4 °C. Then, dNCS-1 was removed by ultrafiltration using an Amicon Ultra filter (0.5–10 KDa). HPLC analysis was performed and the traces were compared with the blank composition.
Supplementary Figure 9. Relative Peak Area of the DCL with and without dNCS1. Aldehyde
1 (1.2 µL, 50 mM), 2a-e (3.6 µL, 50 mM), catalyst (1 µL, 12 M), dNCS-1:1 [1:1], tris buffer (20
mM, pH 7.4), 1 mM CaCl2, 0.5 M NaCl, 1 mM DTT, T = 4 °C, 2% DM SO. Mean relative peak
area (RPA) of each acylhydrazone of the library in the absence (blank) and presence of dNCS-1.
Error bars indicate standard deviation (SD) over three experiments. The calculation is set by the
sum of all peak areas to 100% and assigning each peak its percentage. Source data are provided
R P A N o rm aliz ed V a riation
Supplementary Figure 10. RPA normalized of variation of DCL with and without dNCS1.
Aldehyde 1 (1.2 µL, 50 mM), 2a-e (3.6 µL, 50 mM), catalyst (1 µL, 12 M), dNCS-1:1 [1:1], tris
buffer (20 mM, pH 7.4), 1 mM CaCl2, 0.5 M NaCl, 1 mM DTT, T = 4 °C, 2% DM SO. Error
bars indicate SD over three experiments. Source data are provided as a Source Data file.

Compound: CCOP(=S)(OCC)Oc1nc(Cl)c(Cl)cc1Cl [Chlorpyriphos]
Experimental log S [1]: -5.49

Papp at 2.5 h [2]: 9.5 ± 0.6 ×10⁻⁶ cm/s
Pe (10-6 cm s-1) Experimental 1 [2]: 9.5 10-6 cm s-1
Pe (10-6 cm s-1) Experimental 2 [2]: 9.04 10-6 cm s-1
Pe (10-6 cm s-1) Experimental 3 [2]: 9.94 10-6 cm s-1
Compound: CN(C)CCCN1c2ccccc2Sc2ccccc21 [Promazine]

Compound: O=C(CC(c1ccccc1)c1ccccc1)Nc1nc2ccccc2s1 [IGS-1.76]
reported inhibition of the NCS-1/Ric8a interaction [3]: strong

Compound: Cl[C@H]1[C@H](Cl)[C@@H](Cl)[C@@H](Cl)[C@H](Cl)[C@H]1Cl [Lindane]
Experimental log S [1]: -4.64

Compound: CCOC(=O)c1ccc(N)cc1 [Benzocaine]
Experimental log S [1]: -2.32

Compound: Cn1c(=O)c2c(ncn2C)n(C)c1=O [Caffeine]
Pe (10-6 cm s-1) Experimental 1 [2]: 1.3 10-6 cm s-1
Pe (10-6 cm s-1) Experimental 2 [2]: 0.87 10-6 cm s-1
Pe (10-6 cm s-1) Experimental 3 [2]: 1.70 10-6 cm s-1

Papp at 2.5 h [2]: 1.3 ± 0.2 ×10⁻⁶ cm/s
Pe (10-6 cm s-1) Experimental 1 [2]: 1.3 10-6 cm s-1
Pe (10-6 cm s-1) Experimental 2 [2]: 1.16 10-6 cm s-1
Pe (10-6 cm s-1) Experimental 3 [2]: 1.44 10-6 cm s-1
Compound: CN1C(C(=O)Nc2ccccn2)=C(O)c2ccccc2S1(=O)=O [Piroxicam]

Pe (10-6 cm s-1) Experimental 2 [2]: 16.20 10-6 cm s-1
Pe (10-6 cm s-1) Experimental 3 [2]: 13.70 10-6 cm s-1
Compound: CNCCCN1c2ccccc2CCc2ccccc21 [Desipramine]

Compound: O=C1NC(=O)C(c2ccccc2)(c2ccccc2)N1 [Phenytoin]
Experimental log S [1]: -3.99

Pe (10-6 cm s-1) Experimental 1 [2]: 1.4 10-6 cm s-1
Pe (10-6 cm s-1) Experimental 2 [2]: 1.30 10-6 cm s-1
Pe (10-6 cm s-1) Experimental 3 [2]: 1.47 10-6 cm s-1
Compound: CCn1cc(C(=O)O)c(=O)c2cc(F)c(N3CCNCC3)nc21 [Enoxacin]

Compound: CC(=O)Oc1ccccc1C(=O)O [Aspirin]
Experimental log S [1]: -1.72

Compound: O=C1CN(/N=C/c2ccc([N+](=O)[O-])o2)C(=O)N1 [Nitrofurantoin]
Experimental log S [1]: -3.47

Compound: O=C(CN1CCCCC1)NN1c2ccccc2Sc2ccccc21 [FD44]
reported inhibition of the NCS-1/Ric8a interaction [3]: strong

Compound: O=C1OC(c2ccc(O)cc2)(c2ccc(O)cc2)c2ccccc21 [Phenolpthalein]
Experimental log S [1]: -2.60

Compound: CCOC(=O)CC(SP(=S)(OC)OC)C(=O)OCC (stereo not shown) [Malathion]
Experimental log S [1]: -3.37

RPA, Blank DCL ([4]; as fraction of total area): 0.3277
RPA, Templated DCL ([4]; as fraction of total area, with dNCS-1): 0.4342
RPA (%) with protein (templated DCL) ([4]; relative peak area in presence of dNCS-1): 43.4% and 43.4187%
RPA (%) without protein (blank DCL) ([4]; relative peak area, sum of all peak areas set to 100%): 32.8% and 32.7742%
RPA (%), Blank DCL ([4]; sheet Supplementary Figure 10): 32.8%
RPA (%), Templated DCL ([4]; sheet Supplementary Figure 10, with dNCS-1): 43.4%
Compound: O=C(N/N=C/c1ccc([N+](=O)[O-])c(O)c1)c1cccs1 [3e]

Compound: CN(C)C(=O)Nc1ccc(Cl)c(Cl)c1 [Diuron]
Experimental log S [1]: -3.80

Compound: CCOP(=S)(OCC)Oc1ccc([N+](=O)[O-])cc1 [Parathion]
Experimental log S [1]: -4.66
